Data from EP1432683B9 (Recordati Ireland Limited, priority 2001, dated 2003).
Counter-ions that a name gives are not always drawn.

Assays:
[1] = oral administration; cited from earlier work
[2] = Solubility of crude forms compared with other crude forms; format: physicochemical

## COC(=O)C1=C(C)NC(C)=C(C(=O)OC(C)(C)CN(C)CCC(c2ccccc2)c2ccccc2)C1c1cccc([N+](=O)[O-])c1 (centres unmarked) [Lercanidipine, methyl 1,1,N-trimethyl-N-(3,3-diphenylpropyl)-2-aminoethyl 1,4-dihyaro-2,6-dimethyl-4-(3-nitrophenyl)pyridine-3,5-dicarboxylate]
[1]
  peak plasma levels occurring (time following dosing): 2 to 3 h

## COC(=O)C1=C(C)NC(C)=C(C(=O)OC(C)(C)CN(C)CCC(c2ccccc2)c2ccccc2)C1c1cccc([N+](=O)[O-])c1 (centres unmarked) [Form (A), lercanidipine hydrochloride]
[2]
  solubility compared to other crude forms previously reported: higher solubility
